{
  "source": "patent US10670605B2",
  "about": "“Cysteine reactive probes and uses thereof” (The Scripps Research Institute, priority 2015, dated 2020)",
  "assay_in_all_cases": "Competitive isoTOP-ABPP in situ (fragment-treated cells)",
  "assay_type_in_all_cases": "cell-based",
  "key": {"[1]": {"target": "T1, cysteines in MDA-MB-231 and Ramos cells (Homo sapiens, UniProt P23919)", "T1 sequence (P23919 1-212)": "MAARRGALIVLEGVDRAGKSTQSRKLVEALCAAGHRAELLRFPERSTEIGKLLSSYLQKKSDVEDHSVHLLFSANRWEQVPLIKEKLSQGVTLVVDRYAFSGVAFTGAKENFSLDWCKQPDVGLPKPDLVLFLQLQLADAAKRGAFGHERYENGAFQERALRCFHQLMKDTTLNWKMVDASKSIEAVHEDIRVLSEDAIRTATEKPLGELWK"}, "[2]": {"target": "T2, cysteines in MDA-MB-231 and Ramos cells (Homo sapiens, UniProt P22307)", "T2 sequence (P22307 1-547)": "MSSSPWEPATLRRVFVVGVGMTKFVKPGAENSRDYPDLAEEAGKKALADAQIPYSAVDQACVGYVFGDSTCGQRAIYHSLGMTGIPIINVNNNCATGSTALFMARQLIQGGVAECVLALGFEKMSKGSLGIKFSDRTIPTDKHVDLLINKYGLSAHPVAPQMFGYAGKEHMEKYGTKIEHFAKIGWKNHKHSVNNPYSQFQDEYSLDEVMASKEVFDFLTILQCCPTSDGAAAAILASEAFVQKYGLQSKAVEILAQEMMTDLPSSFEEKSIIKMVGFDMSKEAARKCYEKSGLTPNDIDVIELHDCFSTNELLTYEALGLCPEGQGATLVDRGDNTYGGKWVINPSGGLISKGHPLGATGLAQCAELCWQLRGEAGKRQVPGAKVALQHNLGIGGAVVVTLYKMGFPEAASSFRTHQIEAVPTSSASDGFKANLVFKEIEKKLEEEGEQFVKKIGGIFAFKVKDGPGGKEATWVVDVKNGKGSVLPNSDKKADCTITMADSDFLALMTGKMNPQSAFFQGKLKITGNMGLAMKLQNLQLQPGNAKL"}, "[3]": {"target": "T3, cysteines in MDA-MB-231 and Ramos cells (Homo sapiens, UniProt Q09161)", "T3 sequence (Q09161 1-790)": "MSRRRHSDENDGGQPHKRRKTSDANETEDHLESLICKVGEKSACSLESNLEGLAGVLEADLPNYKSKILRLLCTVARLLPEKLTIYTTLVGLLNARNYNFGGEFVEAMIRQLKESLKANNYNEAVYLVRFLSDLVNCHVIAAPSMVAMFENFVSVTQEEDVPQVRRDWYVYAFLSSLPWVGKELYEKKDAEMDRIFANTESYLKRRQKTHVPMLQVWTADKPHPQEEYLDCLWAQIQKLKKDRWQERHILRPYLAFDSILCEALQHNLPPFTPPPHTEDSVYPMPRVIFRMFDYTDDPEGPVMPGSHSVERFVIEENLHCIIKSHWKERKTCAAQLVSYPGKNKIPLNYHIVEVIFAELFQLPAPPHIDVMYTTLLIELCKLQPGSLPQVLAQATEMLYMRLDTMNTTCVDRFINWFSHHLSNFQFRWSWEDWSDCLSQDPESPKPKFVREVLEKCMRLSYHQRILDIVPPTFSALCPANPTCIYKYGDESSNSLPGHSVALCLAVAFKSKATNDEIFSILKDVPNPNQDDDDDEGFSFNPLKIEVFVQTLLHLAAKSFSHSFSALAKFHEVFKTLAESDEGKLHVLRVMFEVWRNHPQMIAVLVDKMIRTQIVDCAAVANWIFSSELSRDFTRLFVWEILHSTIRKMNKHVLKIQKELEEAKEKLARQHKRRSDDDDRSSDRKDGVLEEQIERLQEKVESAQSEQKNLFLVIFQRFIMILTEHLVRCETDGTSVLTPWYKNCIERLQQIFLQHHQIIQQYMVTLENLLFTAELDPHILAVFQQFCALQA", "conditions": "for isoTOP-ABPP ratio Q09161_C44: 200 μM, insitu, 231"}, "[4]": {"target": "T4, cysteines in MDA-MB-231 and Ramos cells (Homo sapiens, UniProt Q9NS86)", "T4 sequence (Q9NS86 1-450)": "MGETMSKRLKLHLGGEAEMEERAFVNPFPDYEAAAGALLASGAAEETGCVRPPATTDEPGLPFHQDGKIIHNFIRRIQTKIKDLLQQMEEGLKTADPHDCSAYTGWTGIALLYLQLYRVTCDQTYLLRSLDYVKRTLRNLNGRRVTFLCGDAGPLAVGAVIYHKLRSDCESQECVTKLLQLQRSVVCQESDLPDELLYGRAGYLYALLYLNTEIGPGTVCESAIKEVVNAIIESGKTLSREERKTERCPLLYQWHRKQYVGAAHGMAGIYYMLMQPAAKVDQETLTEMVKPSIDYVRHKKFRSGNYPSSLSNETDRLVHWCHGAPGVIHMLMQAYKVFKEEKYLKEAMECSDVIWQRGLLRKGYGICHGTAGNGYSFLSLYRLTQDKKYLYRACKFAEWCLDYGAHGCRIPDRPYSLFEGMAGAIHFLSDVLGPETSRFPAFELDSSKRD"}, "[5]": {"target": "T5, cysteines in MDA-MB-231 and Ramos cells (Homo sapiens, UniProt P42765)", "T5 sequence (P42765 1-397)": "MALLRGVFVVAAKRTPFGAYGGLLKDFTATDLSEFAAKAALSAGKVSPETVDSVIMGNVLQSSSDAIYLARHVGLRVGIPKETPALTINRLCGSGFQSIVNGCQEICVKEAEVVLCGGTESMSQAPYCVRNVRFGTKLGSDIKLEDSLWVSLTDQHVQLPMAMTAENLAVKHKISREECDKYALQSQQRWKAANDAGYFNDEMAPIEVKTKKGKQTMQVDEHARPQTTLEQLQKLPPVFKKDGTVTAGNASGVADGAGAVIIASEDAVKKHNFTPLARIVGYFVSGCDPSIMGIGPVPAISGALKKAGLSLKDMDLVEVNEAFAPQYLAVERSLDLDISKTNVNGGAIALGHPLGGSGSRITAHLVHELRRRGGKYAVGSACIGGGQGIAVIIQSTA"}},
  "data": [
    {"smiles": "COc1ccccc1OCCNC(=O)CCl", "note": "[compound 28]", "values": [
      {"measurement": "isoTOP-ABPP ratio P23919_C163", "setting": "[1]; 200 μM, insitu, 231", "result": 0.4},
      {"measurement": "isoTOP-ABPP ratio P22307_C94", "setting": "[2]; 200 μM, insitu, 231", "result": 20.0}
    ]},
    {"smiles": "Cc1ccc(C=C(C#N)C(=O)NCCN2CCOCC2)cc1", "note": "[compound 41]", "values": [
      {"measurement": "isoTOP-ABPP ratio P23919_C163", "setting": "[1]; 200 μM, insitu, 231", "result": 0.2},
      {"measurement": "isoTOP-ABPP ratio P22307_C71", "setting": "[2]; 200 μM, insitu, 231", "result": 1.2},
      {"measurement": "isoTOP-ABPP ratio P22307_C307", "setting": "[2]; 200 μM, insitu, 231", "result": 1.1},
      {"measurement": "isoTOP-ABPP ratio Q09161_C44", "setting": "[3]", "result": 0.8},
      {"measurement": "isoTOP-ABPP ratio Q9NS86_C187", "setting": "[4]; 200 μM, insitu, 231", "result": 0.6},
      {"measurement": "isoTOP-ABPP ratio P42765_C92", "setting": "[5]; 200 μM, insitu, 231", "result": 1.1}
    ]},
    {"smiles": "O=C(CCl)NC(=O)NC12CC3CC(CC(C3)C1)C2", "note": "[compound 12]", "values": [
      {"measurement": "isoTOP-ABPP ratio, cysteine P23919_C117", "setting": "[1]; 200 μM, insitu, 231", "result": 0.2},
      {"measurement": "isoTOP-ABPP ratio P22307_C71", "setting": "[2]; 200 μM, insitu, 231", "result": 3.7},
      {"measurement": "isoTOP-ABPP ratio, cysteine P22307_C94", "setting": "[2]; 200 μM, insitu, 231", "result": 20.0},
      {"measurement": "isoTOP-ABPP ratio, cysteine P22307_C307", "setting": "[2]; 200 μM, insitu, 231", "result": 20.0},
      {"measurement": "isoTOP-ABPP ratio Q09161_C44", "setting": "[3]", "result": 4.7},
      {"measurement": "isoTOP-ABPP ratio Q9NS86_C187", "setting": "[4]; 200 μM, insitu, 231", "result": 2.0},
      {"measurement": "isoTOP-ABPP ratio P42765_C92", "setting": "[5]; 200 μM, insitu, 231", "result": 20.0}
    ]},
    {"smiles": "O=C(CCl)NCCc1c[nH]c2ccccc12", "note": "[compound 13]", "values": [
      {"measurement": "isoTOP-ABPP ratio, cysteine P23919_C117", "setting": "[1]; 200 μM, insitu, 231", "result": 0.6},
      {"measurement": "isoTOP-ABPP ratio P22307_C71", "setting": "[2]; 200 μM, insitu, 231", "result": 4.9},
      {"measurement": "isoTOP-ABPP ratio Q09161_C44", "setting": "[3]", "result": 1.0},
      {"measurement": "isoTOP-ABPP ratio Q9NS86_C187", "setting": "[4]; 200 μM, insitu, 231", "result": 1.0},
      {"measurement": "isoTOP-ABPP ratio Q9NS86_C187", "setting": "[4]; 200 μM, insitu, ramos", "result": 1.1},
      {"measurement": "isoTOP-ABPP ratio P42765_C92", "setting": "[5]; 200 μM, insitu, ramos", "result": 2.2}
    ]},
    {"smiles": "O=C(CCl)N1CCC(Cc2ccccc2)CC1", "note": "[compound 9]", "values": [
      {"measurement": "isoTOP-ABPP reactivity P23919_C117 DTYMK", "setting": "[1]; 200 μM, insitu, 231", "result": 7.3},
      {"measurement": "isoTOP-ABPP reactivity Q9NS86_C187 LANCL2", "setting": "[4]; 200 μM, insitu, 231", "result": 15},
      {"measurement": "isoTOP-ABPP reactivity P42765_C92 ACAA2", "setting": "[5]; 200 μM, insitu, 231", "result": 4.3}
    ]},
    {"smiles": "COc1ccc(C2CC(c3cccs3)=NN2C(=O)CCl)cc1", "note": "(centres unmarked) [compound 4]", "values": [
      {"measurement": "isoTOP-ABPP reactivity P23919_C163 DTYMK", "setting": "[1]; 100 μM in situ 231", "result": 0.4},
      {"measurement": "isoTOP-ABPP reactivity P22307_C71 SCP2", "setting": "[2]; 100 μM in situ 231", "result": 2.7},
      {"measurement": "isoTOP-ABPP reactivity P22307_C94 SCP2", "setting": "[2]; 100 μM in situ 231", "result": 20.0},
      {"measurement": "isoTOP-ABPP reactivity P22307_C307 SCP2", "setting": "[2]; 100 μM in situ 231", "result": 20.0},
      {"measurement": "isoTOP-ABPP reactivity Q09161_C44 NCBP1", "setting": "[3]; 100 μM in situ 231", "result": 1.8},
      {"measurement": "isoTOP-ABPP reactivity Q9NS86_C187 LANCL2", "setting": "[4]; 100 μM in situ 231", "result": 1.6},
      {"measurement": "isoTOP-ABPP reactivity P42765_C92 ACAA2", "setting": "[5]; 100 μM in situ 231", "result": 3.7}
    ]},
    {"smiles": "O=C(CCl)NC12CC3CC(CC(C3)C1)C2", "note": "[compound 21]", "values": [
      {"measurement": "isoTOP-ABPP ratio, cysteine P23919_C117", "setting": "[1]; 200 μM, insitu, 231", "result": 0.9},
      {"measurement": "isoTOP-ABPP ratio P22307_C71", "setting": "[2]; 200 μM, insitu, 231", "result": 8.3},
      {"measurement": "isoTOP-ABPP ratio, cysteine P22307_C307", "setting": "[2]; 200 μM, insitu, 231", "result": 20.0},
      {"measurement": "isoTOP-ABPP ratio Q09161_C44", "setting": "[3]", "result": 1.3},
      {"measurement": "isoTOP-ABPP ratio Q9NS86_C187", "setting": "[4]; 200 μM, insitu, 231", "result": 0.9},
      {"measurement": "isoTOP-ABPP ratio P42765_C92", "setting": "[5]; 200 μM, insitu, 231", "result": 1.3}
    ]},
    {"smiles": "O=C(CCl)Nc1cccc2ncccc12", "note": "[compound 51]", "values": [
      {"measurement": "isoTOP-ABPP ratio P22307_C71", "setting": "[2]; 200 μM, insitu, 231", "result": 5.6},
      {"measurement": "isoTOP-ABPP ratio Q09161_C44", "setting": "[3]", "result": 1.2},
      {"measurement": "isoTOP-ABPP ratio Q9NS86_C187", "setting": "[4]; 200 μM, insitu, 231", "result": 2.0},
      {"measurement": "isoTOP-ABPP ratio P42765_C92", "setting": "[5]; 200 μM, insitu, 231", "result": 1.1}
    ]}
  ]
}
